Data reported in patent publication US20200325505A1, “FILAMENTOUS FUNGI CAPABLE OF PRODUCING VERY LONG CHAIN FATTY ACIDS” (UT-Battelle, LLC, priority 2019, published 2020).
Residues, ends and D or L forms follow the SMILES beside them.

Key:
[1] = test system: Mortierella elongata AG77; assay: Carbon source utilisation in Biolog 96-well plates, formazan formation after tetrazolium addition; type: cell-based; conditions: for Metabolized: Metabolized = more formazan formation than a control containing no carbon source, observed visually at 2 h, 24 h, 148 h; for Carbon sources that Mortierella elongata AG77 can metabolize: summary of Table 3
How it was run: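 Carbon- or nitrogen-free mineral medium (pH 5.5) was dispensed onto lyophilised carbon or nitrogen sources and inoculated with 3 mm mycelial plugs of M. elongata grown on PDA. After 24 h at 21 °C, tetrazolium chloride was added and formazan was scored visually at 2, 24 and 148 h against a no-carbon-source control.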

[2] = test system: Mortierella elongata AG77; assay: Nitrogen source utilisation in Biolog 96-well plates, formazan formation after tetrazolium addition; type: cell-based; conditions: for Metabolized: Metabolized = more formazan formation than a control containing no nitrogen source, observed visually at 2 h, 24 h, 148 h; for Nitrogen sources that Mortierella elongata AG77 can metabolize: text summary of Table 4
Method: Two 300 mL volumes of growth medium comprising 1 g/L KH2PO4, 1 g/L MgSO4 7H2O, 0.1 g/L CaCl2, 0.02 g/L FeNaEDTA, 0.1 g/L NaCl, and either 1 g/L NH4NO3 or 20 g/L sucrose were prepared. […] Aliquots of 200 μL of carbon-free medium or nitrogen-free medium were pipetted into each well of a set of 96-well plates previously prepared with lyophilized putative carbon or nitrogen sources (Biolog Inc., Hayward, Calif.). Inocula were prepared by perforating a culture of Mortierella elongata AG77 grown on 20 g/L potato dextrose agar with a 3 mm diameter cork borer and separating the surface mycelial mat from the solid growth medium using tweezers. Each well was inoculated with one inoculum. Cultures were incubated at 21° C. for 24 hours to allow metabolic changes to stabilize, and then 100 μL of 3 g/L tetrazolium chloride in water was added to each well.
Conclusions were based on rate and intensity of formazan formation using the 3-(4,5-dimethylthiazol-2-yl)-2,5-diphenyltetrazolium bromide ([…]) assay. “Metabolized” indicates more formazan formation than a control containing no nitrogen source, and “Toxic” indicates less formazan formation than a control containing no nitrogen source, “Metabolized” and “Toxic” assignments are mutually exclusive. In this example, a compound may be “Metabolized” or “Toxic,” but not both.

[3] = compound as carbon source, Toxic = less formazan formation than a control containing no carbon source
[4] = compound as nitrogen source, Toxic = less formazan formation than a control containing no nitrogen source

NCCc1ccccc1 [Phenylethyl-amine]
Metabolized ([1]; compound as carbon source): no | Toxic [1, 3]: no | Metabolized ([2]; compound as nitrogen source): no | Toxic [2, 4]: no

NCCCCN [Putrescine]
Toxic [1]: no | Metabolized ([1]; compound as carbon source): yes | Carbon sources that Mortierella elongata AG77 can metabolize [1]: can metabolize | Toxic [2]: no | Metabolized ([2]; compound as nitrogen source): no

C[C@H](N)C(=O)NCC(=O)O [L-Alanyl-Glycine] (H-Ala-Gly-OH)
Toxic [1]: no | Metabolized ([1]; compound as carbon source): no | Toxic [2]: no | Metabolized ([2]; compound as nitrogen source): no

NCCCC(=O)O [γ-Amino Butyric Acid]
Toxic [1]: no | Metabolized ([1]; compound as carbon source): no | Toxic [2]: no | Metabolized ([2]; compound as nitrogen source): yes | Nitrogen sources that Mortierella elongata AG77 can metabolize [2]: can metabolize

C[C@@H](O)[C@H](N)C(=O)O [L-Threonine]
Toxic [1]: no | Metabolized ([1]; compound as carbon source): yes | Carbon sources that Mortierella elongata AG77 can metabolize [1]: can metabolize | Toxic [2]: no | Metabolized ([2]; compound as nitrogen source): no

C[C@@H](N)C(=O)O [D-Alanine]
Toxic [1]: no | Metabolized ([1]; compound as carbon source): yes | Carbon sources that Mortierella elongata AG77 can metabolize [1]: can metabolize | Toxic [2]: no | Metabolized ([2]; compound as nitrogen source): yes | Nitrogen sources that Mortierella elongata AG77 can metabolize [2]: can metabolize

CC(=O)N[C@H]1C(O)O[C@H](CO)[C@@H](O)[C@@H]1O (stereo partly drawn) [N-Acetyl-D-Glucosamine]
Metabolized ([1]; compound as carbon source): yes | Toxic [1, 3]: no | Carbon sources that Mortierella elongata AG77 can metabolize [1]: can metabolize | Metabolized ([2]; compound as nitrogen source): yes | Toxic [2, 4]: no | Nitrogen sources that Mortierella elongata AG77 can metabolize [2]: can metabolize

CC(C)C[C@H](N)C(=O)O [L-Leucine]
Toxic [1]: no | Metabolized ([1]; compound as carbon source): no | Toxic [2]: no | Metabolized ([2]; compound as nitrogen source): no

CSCC[C@H](N)C(=O)O [L-Methionine]
Toxic [1]: no | Metabolized ([1]; compound as carbon source): no | Toxic [2]: no | Metabolized ([2]; compound as nitrogen source): no

Nc1ncnc2c1ncn2[C@@H]1O[C@H](CO)[C@@H](O)[C@H]1O [Adenosine]
Toxic [1]: no | Metabolized ([1]; compound as carbon source): yes | Carbon sources that Mortierella elongata AG77 can metabolize [1]: can metabolize | Toxic [2]: no | Metabolized ([2]; compound as nitrogen source): no

O=c1ccn([C@@H]2O[C@H](CO)[C@@H](O)[C@H]2O)c(=O)[nH]1 [Uridine]
Toxic [1]: no | Metabolized ([1]; compound as carbon source): no | Toxic [2]: no | Metabolized ([2]; compound as nitrogen source): no

NCC(=O)O [Glycine]
Toxic [1]: no | Metabolized ([1]; compound as carbon source): no | Toxic [2]: no | Metabolized ([2]; compound as nitrogen source): yes | Nitrogen sources that Mortierella elongata AG77 can metabolize [2]: can metabolize

CC(C)[C@H](N)C(=O)O [L-Valine]
Toxic [1]: no | Metabolized ([1]; compound as carbon source): no | Toxic [2]: no | Metabolized ([2]; compound as nitrogen source): no

NCCc1ccc(O)cc1 [Tyramine]
Toxic [1]: no | Metabolized ([1]; compound as carbon source): yes | Carbon sources that Mortierella elongata AG77 can metabolize [1]: can metabolize | Toxic [2]: no | Metabolized ([2]; compound as nitrogen source): no

N[C@@H](Cc1ccccc1)C(=O)O [L-Phenylalanine]
Metabolized ([1]; compound as carbon source): yes | Toxic [1, 3]: no | Carbon sources that Mortierella elongata AG77 can metabolize [1]: can metabolize | Metabolized ([2]; compound as nitrogen source): no | Toxic [2, 4]: no

N[C@H](CC(=O)O)C(=O)O [D-Aspartic Acid]
Toxic [1]: no | Metabolized ([1]; compound as carbon source): yes | Carbon sources that Mortierella elongata AG77 can metabolize [1]: can metabolize | Toxic [2]: no | Metabolized ([2]; compound as nitrogen source): no

N[C@H](CO)C(=O)O [D-Serine]
Toxic [1]: no | Metabolized ([1]; compound as carbon source): no | Toxic [2]: no | Metabolized ([2]; compound as nitrogen source): no

NCCO [2-Aminoethanol]
Metabolized ([1]; compound as carbon source): yes | Toxic [1, 3]: no | Carbon sources that Mortierella elongata AG77 can metabolize [1]: can metabolize | Metabolized ([2]; compound as nitrogen source): no | Toxic [2, 4]: no

CC(=O)N[C@@H](CCC(=O)O)C(=O)O [N-Acetyl-L-Glutamic Acid]
Toxic [1]: no | Metabolized ([1]; compound as carbon source): yes | Carbon sources that Mortierella elongata AG77 can metabolize [1]: can metabolize | Toxic [2]: no | Metabolized ([2]; compound as nitrogen source): no

NCCCCC(=O)O [δ-Amino Valeric Acid]
Toxic [1]: no | Metabolized ([1]; compound as carbon source): no | Toxic [2]: no | Metabolized ([2]; compound as nitrogen source): no

O=C(O)[C@@H]1CCCN1 [L-Proline]
Toxic [1]: no | Metabolized ([1]; compound as carbon source): yes | Carbon sources that Mortierella elongata AG77 can metabolize [1]: can metabolize | Toxic [2]: no | Metabolized ([2]; compound as nitrogen source): yes | Nitrogen sources that Mortierella elongata AG77 can metabolize [2]: can metabolize

OC[C@H]1O[C@@H](n2cnc3c(O)ncnc32)[C@H](O)[C@@H]1O [Inosine]
Metabolized ([1]; compound as carbon source): yes | Toxic [1, 3]: no | Carbon sources that Mortierella elongata AG77 can metabolize [1]: can metabolize | Metabolized ([2]; compound as nitrogen source): no | Toxic [2, 4]: no

NCC(=O)N[C@@H](CCC(=O)O)C(=O)O [Glycyl-L-Glutamic Acid] (H-Gly-Glu-OH)
Metabolized ([1]; compound as carbon source): no | Toxic [1, 3]: no | Metabolized ([2]; compound as nitrogen source): no | Toxic [2, 4]: no

NCCCC[C@H](N)C(=O)O [L-Lysine]
Toxic [1]: no | Metabolized ([1]; compound as carbon source): no | Toxic [2]: no | Metabolized ([2]; compound as nitrogen source): no

CC(=O)N[C@H]1C(O)O[C@H](CO)[C@H](O)[C@@H]1O (stereo partly drawn) [N-Acetyl-D-Galactosamine]
Metabolized ([1]; compound as carbon source): no | Toxic [1, 3]: no | Metabolized ([2]; compound as nitrogen source): yes | Toxic [2, 4]: no | Nitrogen sources that Mortierella elongata AG77 can metabolize [2]: can metabolize

C[C@H](N)C(=O)O [L-Alanine]
Toxic [1]: no | Metabolized ([1]; compound as carbon source): no | Toxic [2]: no | Metabolized ([2]; compound as nitrogen source): yes | Nitrogen sources that Mortierella elongata AG77 can metabolize [2]: can metabolize

N[C@@H](CCC(=O)O)C(=O)O [L-Glutamic Acid]
Metabolized ([1]; compound as carbon source): no | Toxic [1, 3]: no | Metabolized ([2]; compound as nitrogen source): yes | Toxic [2, 4]: no | Nitrogen sources that Mortierella elongata AG77 can metabolize [2]: can metabolize

NC(=O)CC[C@H](N)C(=O)O [L-Glutamine]
Toxic [1]: yes | Metabolized ([1]; compound as carbon source): no | Toxic [2]: no | Metabolized ([2]; compound as nitrogen source): yes | Nitrogen sources that Mortierella elongata AG77 can metabolize [2]: can metabolize

N=C(N)NCCC[C@H](N)C(=O)O [L-Arginine]
Toxic [1]: no | Metabolized ([1]; compound as carbon source): yes | Carbon sources that Mortierella elongata AG77 can metabolize [1]: can metabolize | Toxic [2]: no | Metabolized ([2]; compound as nitrogen source): no

NC(=O)[C@@H](O)[C@@H](O)[C@H](O)[C@@H](O)C=O [Glucuronamide]
Metabolized ([1]; compound as carbon source): yes | Toxic [1, 3]: no | Carbon sources that Mortierella elongata AG77 can metabolize [1]: can metabolize | Metabolized ([2]; compound as nitrogen source): no | Toxic [2, 4]: no

CC(N)=O [Acetamide]
Metabolized ([1]; compound as carbon source): no | Metabolized ([2]; compound as nitrogen source): no | Toxic [2, 4]: no

N[C@H]1C(O)O[C@H](CO)[C@@H](O)[C@@H]1O (stereo partly drawn) [D-Glucosamine]
Toxic [1]: no | Metabolized ([1]; compound as carbon source): yes | Carbon sources that Mortierella elongata AG77 can metabolize [1]: can metabolize | Toxic [2]: no | Metabolized ([2]; compound as nitrogen source): no

N[C@@H](CCO)C(=O)O [L-Homoserine]
Toxic [1]: no | Metabolized ([1]; compound as carbon source): no | Toxic [2]: no | Metabolized ([2]; compound as nitrogen source): yes | Nitrogen sources that Mortierella elongata AG77 can metabolize [2]: can metabolize

NC(=O)C[C@H](N)C(=O)O [L-Asparagine]
Toxic [1]: yes | Metabolized ([1]; compound as carbon source): no | Toxic [2]: no | Metabolized ([2]; compound as nitrogen source): no

CC[C@H](C)[C@H](N)C(=O)O [L-Isoleucine]
Toxic [1]: no | Metabolized ([1]; compound as carbon source): no | Toxic [2]: no | Metabolized ([2]; compound as nitrogen source): yes | Nitrogen sources that Mortierella elongata AG77 can metabolize [2]: can metabolize

N[C@@H](CC(=O)O)C(=O)O [L-Aspartic Acid]
Toxic [1]: no | Metabolized ([1]; compound as carbon source): yes | Carbon sources that Mortierella elongata AG77 can metabolize [1]: can metabolize | Toxic [2]: no | Metabolized ([2]; compound as nitrogen source): no

Cc1cn([C@H]2C[C@H](O)[C@@H](CO)O2)c(=O)[nH]c1=O [Thymidine]
Toxic [1]: no | Metabolized ([1]; compound as carbon source): no | Toxic [2]: no | Metabolized ([2]; compound as nitrogen source): no

N[C@@H](CO)C(=O)O [L-Serine]
Toxic [1]: no | Metabolized ([1]; compound as carbon source): no | Toxic [2]: no | Metabolized ([2]; compound as nitrogen source): no

O=C1CC[C@@H](C(=O)O)N1 [L-Pyroglutamic Acid]
Toxic [1]: no | Metabolized ([1]; compound as carbon source): no | Toxic [2]: no | Metabolized ([2]; compound as nitrogen source): no

O=c1[nH]c(=O)c2ncn([C@@H]3O[C@H](CO)[C@@H](O)[C@H]3O)c2[nH]1 [Xanthosine]
Toxic [2]: no | Metabolized ([2]; compound as nitrogen source): no

N[C@@H](Cc1c[nH]cn1)C(=O)O [L-Histidine]
Toxic [1]: no | Metabolized ([1]; compound as carbon source): no | Toxic [2]: no | Metabolized ([2]; compound as nitrogen source): yes | Nitrogen sources that Mortierella elongata AG77 can metabolize [2]: can metabolize

NCCc1c[nH]cn1 [Histamine]
Toxic [2]: no | Metabolized ([2]; compound as nitrogen source): no
